Measured values from patent US6525059B1, “Substituted pyrazoles as p38 kinase inhibitors” (G. D. Searle & Company, priority 1998, dated 2003).
Counter-ions that a name gives are not always drawn. Like-named read-outs stand apart in the source and are kept apart here.

Legend:
[1] = tested on: TNF-α; test: Rat assay: LPS-challenged rats, serum TNF-α by ELISA; type: in vivo; conditions: for inhibition in vivo at 5 mg/kg: Rattus norvegicus, po
[2] = biological target: T1, human p38 kinase alpha (Homo sapiens, UniProt Q16539); test: p38 kinase in vitro assay, phosphorylation of biotinylated PHAS-I with gamma 32P-ATP; type: biochemical
T1 construct: The coding region of the human p38a cDNA was obtained by PCR-amplification from RNA isolated from the human monocyte cell line THP.1; GST (N); made in house; host or cells: E. coli DH10B
T1 sequence (Q16539 whole entry): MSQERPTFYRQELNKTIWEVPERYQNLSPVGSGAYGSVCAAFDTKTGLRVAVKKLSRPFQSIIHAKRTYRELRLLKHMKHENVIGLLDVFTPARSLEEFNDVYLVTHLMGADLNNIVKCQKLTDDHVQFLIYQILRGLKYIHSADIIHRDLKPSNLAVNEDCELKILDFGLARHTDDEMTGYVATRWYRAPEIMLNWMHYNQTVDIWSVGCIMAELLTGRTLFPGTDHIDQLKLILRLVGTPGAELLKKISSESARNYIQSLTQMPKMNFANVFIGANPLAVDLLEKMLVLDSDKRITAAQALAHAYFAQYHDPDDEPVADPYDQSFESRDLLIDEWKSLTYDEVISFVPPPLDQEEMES
How it was run: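 MKK6-activated human p38α phosphorylates biotinylated PHAS-I with γ-32P-ATP in 25 mM HEPES pH 7.5, 10 mM Mg acetate, 50 μM unlabeled ATP, 1% DMSO, 30 °C for 1 h or overnight. Compounds at 100–0.001 μM (10-fold steps, triplicate); substrate captured on streptavidin filter plates and counted by scintillation.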

[3] = tested on: human TNF; test: TNF inhibition: human whole blood assay; type: cell-based; conditions: Homo sapiens
Protocol: Human peripheral blood is obtained in heparinized tubes. A 190 μL aliquot of blood is placed in each well of a 96 well u-bottom plate. […] After one hour of incubation at 37° C., […] of lipopolysaccharide (Salmonella typhosa, Sigma) in phosphate buffered saline is added resulting in a final concentration of […]. After four to five hours of incubation at 37° C., the supernatants are harvested and assayed at 1:10 or 1:20 dilutions for human TNF using ELISA.

[4] = 5 mpk oral gavage, 4 h before LPS challenge, read-out: Rat LPS Model % Inhibition @ dose @ predose time
[5] = read-out: P38 alpha kinase IC50
[6] = TNF production, LPS-stimulated human whole blood, read-out: Human Whole Blood IC50
[7] = read-out: Rat LPS Model % Inhibition @ dose @ predose time
[8] = read-out: Human Whole Blood IC50, μM

Row | Compound | inhibition in vivo at 5 mg/kg [1, 4] | IC50 [2, 5] | IC50 [3, 6] | other results
1 | Clc1ccc(-c2n[nH]c(C3CCNCC3)c2-c2ccncc2)cc1 [Example C-74, 5-(4-piperidyl)-4-(4-pyridyl)-3-(4-chlorophenyl)pyrazole hydrochloride] | 54% | 0.037 µM | 0.56 µM | 
2 | CN1CCC(c2[nH]nc(-c3ccc(Cl)cc3)c2-c2ccncc2)CC1 [Example C-75] | 71% | 0.045 µM | 0.4 µM | 
3 | CC(=O)N1CCC(c2[nH]nc(-c3ccc(Cl)cc3)c2-c2ccncc2)CC1 [Example C-76] | 66% | 0.07 µM | 3.24 µM | 
4 | COCC(=O)N1CCC(c2[nH]nc(-c3ccc(Cl)cc3)c2-c2ccncc2)CC1 [Example C-77] | 92% | 0.071 µM | 8.2 µM | 
5 | CS(=O)(=O)N1CCC(c2[nH]nc(-c3ccc(Cl)cc3)c2-c2ccncc2)CC1 [Example C-78] | 87% | 0.068 µM | 10.5 µM | 
6 | COCCN1CCC(c2[nH]nc(-c3ccc(Cl)cc3)c2-c2ccncc2)CC1 [Example C-79] | 83% | 0.045 µM | 0.52 µM | 
7 | FC(F)(F)c1ccc(-c2n[nH]c(C3CCNCC3)c2-c2ccncc2)cc1 [Example C-83] | 25% | 0.24 µM | 1.23 µM | 
8 | CN1CCC(c2[nH]nc(-c3ccc(C(F)(F)F)cc3)c2-c2ccncc2)CC1 [Example C-84, 5-(N-METHYL-4-(4-PYRIDYL)-4-(4-PYRIDYL)-3-[4-(TRIFLUOROMETHYL)PHENYL]PYRAZOLE] | 22% | 0.048 µM | 0.88 µM | 
9 | FC(F)(F)c1cccc(-c2n[nH]c(C3CCNCC3)c2-c2ccncc2)c1 [Example C-86] | 66% | 0.007 µM | 0.19 µM | 
10 | Clc1cccc(-c2n[nH]c(C3CCNCC3)c2-c2ccncc2)c1 [Example C-88] | 59% | 0.012 µM | 0.3 µM | 
11 | CN1CCC(c2[nH]nc(-c3cccc(Cl)c3)c2-c2ccncc2)CC1 [Example C-89] | 27% | 0.039 µM | 0.12 µM | 
12 | CN1CCCC(c2[nH]nc(-c3ccc(F)cc3)c2-c2ccncc2)C1 (stereo not drawn) [Example C-91] | 63% | 0.054 µM | 2.31 µM | 
13 | N[C@H]1CC[C@@H](c2[nH]nc(-c3ccc(Cl)cc3)c2-c2ccncc2)CC1 [Example C-92, 5-cis-(4-AMINOCYCLOHEXYL)-4-(4-PYRIDYL)-3-(4-CHLOROPHENYL)PYRAZOLE] | 66% | 0.024 µM | 0.28 µM | 
14 | CN(C)[C@H]1CC[C@@H](c2[nH]nc(-c3ccc(Cl)cc3)c2-c2ccncc2)CC1 [Example C-93, 5-cis-(4-N,N-DIMETHYLAMINOCYCLOHEXYL)-4-(4-PYRIDYL)-3-(4-CHLOROPHENYL)PYRAZOLE] | 50% | 0.009 µM | 0.38 µM | 
15 | CC(C)N[C@H]1CC[C@@H](c2[nH]nc(-c3ccc(Cl)cc3)c2-c2ccncc2)CC1 [Example C-94, 5-[cis-4-N-(2-PROPYL)AMINOCYCLOHEXYL]-4-(4-PYRIDYL)-3-(4-CHLOROPHENYL)PYRAZOLE] | 73% | 0.02 µM | 0.27 µM | 
16 | CS(=O)(=O)N[C@H]1CC[C@@H](c2[nH]nc(-c3ccc(Cl)cc3)c2-c2ccncc2)CC1 [Example C-97, 5-cis-[4-N-(METHYLSULFONYL)AMINOCYCLOHEXYL]-4-(4-PYRIDYL)-3-(4-CHLOROPHENYL)PYRAZOLE] | 21% | 0.025 µM | 3.83 µM | 

Row | Compound | inhibition in vivo at 5 mg/kg [1, 4] | IC50 [2, 5] | IC50 [3, 6] | other results
17 | N[C@H]1CC[C@@H](c2[nH]nc(-c3ccc(F)cc3)c2-c2ccncc2)CC1 [Example C-98, 5-cis-(4-AMINOCYCLOHEXYL-4-(4-PYRIDYL)-3-(4-FLUOROPHENYL)PYRAZOLE] | 78% | 0.016 µM | 0.64 µM | 
18 | CN(C)[C@H]1CC[C@@H](c2[nH]nc(-c3ccc(F)cc3)c2-c2ccncc2)CC1 [Example C-99, 5-(cis-4-N,N-DIMETHYLAMINOCYCLOHEXYL)-4-(4-PYRIDYL)-3-(4-FLUOROPHENYL)PYRAZOLE] | 36% | 0.062 µM | 0.38 µM | 
19 | CC(C)N[C@H]1CC[C@@H](c2[nH]nc(-c3ccc(F)cc3)c2-c2ccncc2)CC1 [Example C-100, 5-cis-[4-N-(2-PROPYL)AMINOCYCLOHEXYL]-4-(4-PYRIDYL)-3-(4-FLUOROPHENYL)PYRAZOLE] | 44% | 0.027 µM | 0.27 µM | 
20 | CN(C)[C@H]1CC[C@@H](c2[nH]nc(-c3cccc(Cl)c3)c2-c2ccncc2)CC1 [Example C-106, 5-cis-(4-N,N-DIMETHYLAMINOCYCLOHEXYL)-4-(4-PYRIDYL)-3-(3-CHLOROPHENYL)PYRAZOLE] | 23% | 0.026 µM | 0.44 µM | 
21 | CC(=N)N1CCC(c2[nH]nc(-c3ccc(F)cc3)c2-c2ccncc2)CC1 [Example C-107] |  |  |  | inhibition in vivo at 5 mg/kg [1, 7]: 11%; IC50 ([2]; P38 alpha kinase IC50, μM): 0.014 µM; IC50 [3, 8]: 0.38 µM
22 | N=C(N)N1CCC(c2[nH]nc(-c3ccc(F)cc3)c2-c2ccncc2)CC1 [Example C-108] | 0% | 0.02 µM | 0.73 µM | 
23 | CS(=O)(=O)N1CCC(c2[nH]nc(-c3ccc(F)cc3)c2-c2ccncc2)CC1 [Example C-111] | 39% | 0.21 µM | 6.05 µM | 
24 | COCC(=O)N1CCC(c2[nH]nc(-c3ccc(F)cc3)c2-c2ccncc2)CC1 [Example C-112] | 89% | 0.54 µM | 6.36 µM | 
25 | CC(=O)N1CCC(c2[nH]nc(-c3ccc(F)cc3)c2-c2ccncc2)CC1 [Example C-113] | 77% | 0.082 µM | 2.72 µM | 
26 | COCc1[nH]nc(-c2ccc(Cl)cc2)c1-c1ccncc1 [Example C-115, 5-(METHOXYMETHYL)-4-(4-PYRIDYL)-3-(4-CHLOROPHENYL)PYRAZOLE] | 39% | 0.042 µM | 10.2 µM | 
27 | Nc1ccc(Cc2[nH]nc(-c3ccc(Cl)cc3)c2-c2ccncc2)cc1 [Example C-116, 5-(4-AMINOBENZYL)-4-(4-PYRIDYL)-3-(4-CHLOROPHENYL)PYRAZOLE] | 53% | 0.429 µM | 0.5 µM | 
28 | CN(C)c1ccc(Cc2[nH]nc(-c3ccc(Cl)cc3)c2-c2ccncc2)cc1 [Example C-117] | 71% | 3.42 µM | 7.26 µM | 
29 | CC(=O)Nc1ccc(Cc2[nH]nc(-c3ccc(Cl)cc3)c2-c2ccncc2)cc1 [Example C-118, 5-[4-(N-ACETYL)AMINOBENZYL]-4-(4-PYRIDYL)-3-(4-CHLOROPHENYL)PYRAZOLE] | 39% | 0.298 µM | > 25 µM | 
30 | CC(C)(N)C(=O)NCc1[nH]nc(-c2ccc(F)cc2)c1-c1ccncc1 [Example C-120] |  | 0.7 µM |  | inhibition in vivo at 5 mg/kg [1, 7]: 26%; IC50 [3, 8]: 18.6 µM
31 | O=C(CO)N1CCC(c2[nH]nc(-c3ccc(Cl)cc3)c2-c2ccncn2)CC1 [Example D-2, N-(2-Hydroxyacetyl)-5-(4-piperidyl)-4-(4-pyrimidyl)-3-(4-chlorophenyl)pyrazole hydrochloride] |  |  |  | ratLPS/% Inh @1.0 (mg/kg) ([1]; 1.0 mg/kg oral gavage, 4 hours before LPS challenge, hydrochloride): 89.0%; inhibition in vivo at 5 mg/kg ([1]; 5.0 mg/kg oral gavage, 4 hours before LPS challenge, read-out: ratLPS/% Inh @5.0 (mg/kg)): 95%; IC50 ([3]; TNF production, LPS-stimulated human whole blood, read-out: HWB IC50): 1.79 µM
